Entries after “also recorded” stand apart in the source; their conditions may differ.
What was measured:
[1] = biological target: T1, soluble epoxide hydrolase (sEH) (Homo sapiens, UniProt P34913); assay: Inhibition of soluble epoxide hydrolase activity; format: biochemical
T1 sequence (P34913 with tags, fused parts or gaps A5G/DEL257-257/G258W): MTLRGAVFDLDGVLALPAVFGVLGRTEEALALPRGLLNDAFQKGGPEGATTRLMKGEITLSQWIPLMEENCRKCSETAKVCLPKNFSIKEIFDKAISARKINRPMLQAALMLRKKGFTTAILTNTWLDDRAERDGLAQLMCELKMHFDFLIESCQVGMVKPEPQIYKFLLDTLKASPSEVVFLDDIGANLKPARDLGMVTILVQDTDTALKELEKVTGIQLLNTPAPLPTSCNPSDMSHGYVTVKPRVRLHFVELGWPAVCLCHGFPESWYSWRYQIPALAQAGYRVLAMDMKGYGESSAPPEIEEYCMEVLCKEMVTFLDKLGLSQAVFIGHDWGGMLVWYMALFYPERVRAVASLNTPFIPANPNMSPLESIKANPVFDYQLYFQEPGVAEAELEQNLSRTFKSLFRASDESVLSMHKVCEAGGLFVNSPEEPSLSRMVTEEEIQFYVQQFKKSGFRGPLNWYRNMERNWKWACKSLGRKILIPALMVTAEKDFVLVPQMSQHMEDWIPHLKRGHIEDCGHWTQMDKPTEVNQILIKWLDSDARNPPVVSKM
From the text: Any of a number of standard assays for determining epoxide hydrolase activity can be used to determine inhibition of sEH. For example, suitable assays are described in Gill, et al., Anal Biochem 131, 273-282 (1983); and Borhan, et al., Analytical Biochemistry 231, 188-200 (1995)). Suitable in vitro assays are described in Zeldin et al., J. Biol. Chem. 268:6402-6407 (1993). Suitable in vivo assays are described in Zeldin et al., Arch Biochem Biophys 330:87-96 (1996). […]
The enzyme also can be detected based on the binding of specific ligands to the catalytic site which either immobilize the enzyme or label it with a probe such as dansyl, fluoracein, luciferase, green fluorescent protein or other reagent. […] The enzyme also can be detected based on the generation of fluorescent products following the hydrolysis of the epoxide. […]

Metabolic stability = format: in vitro ADME
[2] = test system: TAC-mice (thoracic aortic constriction, cardiac hypertrophy); assay: Thoracic aortic constriction (TAC) mouse model of pressure overload cardiac hypertrophy; format: in vivo, mouse (C57B1/6J); conditions: for Hypertrophic response, H&E-stained histologic sections (FIG. 2): 3 weeks, compound 950 15 mg/kg twice a day, AUDA-BE 3 mg/kg twice a day, in drinking water; for Cardiac hypertrophy after drug treatment: sEH inhibitor in drinking water for three weeks
Experimental: Ascending aortic constriction was performed in 8-week-old male C57B1/6J mice (Charles River, Wilmington, Mass.). Animals were anesthetized with intraperitoneal ketamine 50 mg/kg and xylazine 2.5 mg/kg, and aortic constriction was created via a left thoracotomy by placing a ligature securely around the ascending aorta and a 26-gauge needle and then removing the needle. Immediately after the surgery, animals with ascending aortic stenosis were randomized and placed in one of the following regimens for three weeks: (a) compound 950 in drinking water ([…]), (b) AUDA-BE in drinking water, or (c) no drug. Age-matched animals served as controls.
To assess systolic function, echocardiograms were performed using M-mode and two-dimensional measurements as described previously. The measurements represented the average of six selected cardiac cycles from at least two separate scans performed in random-blind fashion with papillary muscles used as a point of reference for consistency in level of scan. End diastole was defined as the maximal left ventricle diastolic dimension and end systole was defined as the peak of posterior wall motion. Fractional shortening (FS), a surrogate of systolic function, was calculated from left ventricle dimensions as follows: FS=((EDD−ESD)/EDD)×100%.
To compare myocyte size, hearts were removed and rinsed for 1 minute in 0.1 mol/L phosphate buffered saline (PBS) with 50 mmol/L KCl (pH 7.2) and subsequently fixed overnight at 4° C. in 4% paraformaldehyde prepared in PBS. Vibratome sections (100 μm) from similar areas of the left ventricles were stained in a 1:20 dilution of rhodamine phalloidin (Molecular Probes, Inc., Eugene, Oreg.) and imaged with a BioRad MRC1000 confocal scanning laser microscope (BioRad Laboratories, Hercules, Calif.). A minimum of 5 optical sections was collected from the free wall of the left ventricle of each animal with a Zeiss 60× NA 1.4 lens. All images used for myocyte measurements were collected with identical laser, iris, gain, and black level operating parameters. Myocyte widths were measured parallel to the direction of the sarcomeres from unbranched regions of the myocytes near an intercalated disk with the length/profile function. Data sets were then compared using Student t tests.
Thoracic aortic constrictions (“TACs”) were created in 8-week-old male C57B1/6J mice as described in Example 1, above, resulting in a chronic pressure overload induced cardiac hypertrophy. TAC-mice were randomized to receive either no therapy or one of two exemplar sEH inhibitors (compound 950 and AUDA-BE) in drinking water for a period of three weeks. […] This effect is independent of the anti-hypertensive action of the drugs, since the hearts were constantly exposed to the high afterload created by the aortic constriction.
All the mice were sacrificed at three weeks after the TAC was created.
FIG. 2 further compares hematoxylin and eosin (“H&E”)-stained histologic section of a sham-operated heart and of TAC-mouse hearts with or without sEHI treatment. […] We further assessed the chamber size and wall thickness in untreated TAC-mice compared to treated TAC-mice using echocardiography.

[3] = test system: neonatal mouse cardiac myocytes; assay: Angiotensin II induced hypertrophy of primary neonatal mouse cardiac myocytes in culture; format: cell-based, mouse (C57B1/6J); conditions: 48 hours of treatment with ANG II
Experimental: Single cardiac myocytes were isolated from 5 day old neonatal mice (C57B1/6J) as previously described (Nuss & Marban, J. Physiol. 479 (Pt 2):265-79 (1994); Chiamvimonvat et al., J. Physiol. 483 (Pt 2):307-18 (1995)). Mice were anesthetized with pentobarbital (40 mg/kg) intraperitoneally. Animals were sacrificed by decapitation and hearts excised under sterile conditions into a filter sterilized (0.2 μm) nominally Ca^2+-, bicarbonate-free Hanks HEPES-buffered solution, pH 7.4 at room temperature. Atrial and great vessel tissues were carefully removed. The ventricles were washed and minced in this Ca^2+-free buffered solution containing trypsin (Difco®, BD Diagnostic Systems, Sparks Md., 1.5 mg/ml), DNase (1 ml/100 ml of the enzyme solution). The tissues were then incubated with 2 ml of the enzyme solution and stirred continuously at 37° C. The supernatant was removed and the enzyme solution replaced at five-minute intervals. The supernatant obtained after the first 15 minutes was discarded. Thereafter, the supernatant was diluted 1:1 in bovine calf serum. The cells were centrifuged at 2000 r.p.m. for three minutes and resuspended in MEM culture medium (Invitrogen, Carlsbad, Calif.) containing 5% bovine calf serum (Invitrogen), penicillin G (sodium) and vitamin B12. The viability of the cells was assessed using the trypan blue dye exclusion test. […]

[4] = test system: TAC-mice (thoracic aortic constriction, cardiac hypertrophy); assay: Thoracic aortic constriction (TAC) mouse model of pressure overload cardiac hypertrophy; format: in vivo, mouse (C57B1/6J); conditions: after 3 and 6 weeks of follow up

In the case of `CCCCCCCCCCCCNC(=O)NC12CC3CC(CC(C3)C1)C2` [ADU, N-Adamantyl-N′-dodecyl urea], the “Activity as inhibitor of sEH” value [1] is reported as “particularly high activity on sEH” and the Metabolic stability (Metabolic stability) is reported as “metabolically stable”.

In the case of `CCCCOC(=O)CCCCCCCCCCCNC(=O)NC12CC3CC(CC(C3)C1)C2` [AUDA-BE, 12-(3-Adamantan-1-yl-ureido)dodecanoic acid butyl ester], the “Hypertrophic response, H&E-stained histologic sections (FIG. 2)” value [2] is reported as “prevents the development of cardiac hypertrophy; also recorded: completely prevented” and the “Cardiac hypertrophy after drug treatment” value [2] is reported as “almost complete resolution of cardiac hypertrophy”.

With `CCOCCOCCOCCCCCNC(=O)NC12CC3CC(CC(C3)C1)C2` [compound 950, Adamantan-1-yl-3-{5-[2-(2-ethoxyethoxy)ethoxy]pentyl}urea] the “Hypertrophic response, H&E-stained histologic sections (FIG. 2)” value [2] was “prevents the development of cardiac hypertrophy; also recorded: completely prevented”, the “Development of cardiac hypertrophy and failure, M-mode echocardiography (FIG. 3)” value ([2]; after three weeks of treatment) was “completely prevented the development of cardiac hypertrophy and failure” and the “Cardiac hypertrophy, whole hearts (FIG. 1)” value ([2]; drinking water three weeks, sacrificed at three weeks after TAC) was “no evidence of cardiac hypertrophy”. For the same molecule, the “Loss of organization of the myofibrils (myofibril disarray), anti-alpha actinin immunofluorescence (FIG. 4)” value ([2]; left ventricle sections, three weeks) was “effects were prevented”, the “Cardiac hypertrophy after drug treatment” value [2] was “almost complete resolution of cardiac hypertrophy” and the “Cell size of neonatal cardiac myocytes, ANG II plus compound versus ANG II alone” value [3] was “significant differences in the cell size”. For the same molecule, the “Development of cardiac hypertrophy and failure, echocardiography” value [4] was “can prevent the development of cardiac hypertrophy and failure”.

Source: patent US8242170B2, “Use of cis-epoxyeicosatrienoic acids and inhibitors of soluble epoxide hydrolase to reduce cardiomyopathy” (The Regents of the University of California, priority 2005, dated 2012)
